Entries after “also recorded” stand apart in the source; their conditions may differ.
Key:
immobilized GNA = immobilized GNA (Galanthus nivalis, UniProt P30617); assay: SPR steady-state affinity of oligosaccharides with immobilized GNA; details: apparent, N.D. = not detectable, no binding curves
Protocol: (§1) The experimental data were fit using the steady-state affinity model (Biacore T100 Evaluation software 2.0.2) to determine the apparent KD-values.
(§2) The apparent KD was calculated by steady-state affinity analysis (Table 6).

immobilized GNAmaize = assay: SPR steady-state affinity of oligosaccharides with immobilized GNAmaize; design: species or system Zea mays; details: apparent, N.D. = not detectable, binding detected = KD could not be determined
Protocol: as §1, §2

[1] = tested on: syncytia formation between HuT-78/HIV-1 and Sup-T1 cells; assay: Co-cultivation assay between Sup-T1 and persistently HIV-1-infected HuT-78 cells (syncytia formation); assay type: cell-based, Human; details: inhibit syncytia formation between HuT-78/HIV-1 and Sup-T1 cells by 50%
Protocol: Persistently HIV-1(IIIB)-infected HuT-78 cells (designated HuT-78/HIV-1) were washed to remove cell-free virus from the culture medium, and 5 × 10^4 cells (50 μl) were transferred to 96-well microtiter plates. Next, a similar amount of Sup-T1 cells (50 μl) and appropriate concentrations of test compound (100 μl), were added to each well.

HIV-2(ROD) = assay: Antiretrovirus assay, HIV-2(ROD)-induced cytopathicity (syncytium formation) in CEM cell cultures; assay type: cell-based; details: inhibit virus-induced cytopathicity in CEM cell cultures by 50%
Protocol: (§3) CEM cells (5 × 10^5 cells per ml) were suspended in fresh culture medium and infected with HIV-1 and HIV-2 at 100 times the CCID50 (50% cell culture infective doses) per ml of cell suspension, of which 100 μl was mixed with 100 μl of the appropriate dilutions of the test compounds, and further incubated at 37°C. After 4 to 5 days, syncytia formation was recorded microscopically in the cell cultures. The 50% effective concentration (EC50) corresponds to the compound concentration required to prevent syncytium formation by 50% in the virus-infected CEM cell cultures.

[2] = tested on: HIV-1 DJ259 (clade C, R5); assay: p24 production in HIV-infected PBMC, clinical isolate DJ259; assay type: cell-based; details: inhibit p24 production of HIV-infected PBMC
Protocol: (§4) Buffy coat preparations from healthy donors were obtained from the Blood Bank in Leuven. Peripheral blood mononuclear cells (PBMC) were isolated by density gradient centrifugation over Lymphoprep (density = 1.077 g/ml; Nycomed, Oslo, Norway). The PBMC were transferred to RPMI 1640 medium supplemented with 10% fetal calf serum (BioWhittaker Europe) and 2 mM L-glutamine and then stimulated for 3 days with phytohemagglutinin (PHA; Murex Biotech Limited, Dartford, United Kingdom) at 2 μg/ml. […] Supernatant was collected at days 8 to 10, and HIV-1 core antigen in the culture supernatant was analyzed by the p24 core antigen enzyme-linked immunosorbent assay (ELISA; DuPont-Merck Pharmaceutical Co., Wilmington, Del.).

[3] = tested on: transmission of DC-SIGN-captured HIV-1(IIIB) to CD4+ T-lymphocyte C8166 cells; assay: Transmission of DC-SIGN-captured HIV-1(IIIB) to C8166 cells (syncytia formation); assay type: cell-based; details: transmission of DC-SIGN-captured virions to CD4+ T cells (C8166)
Protocol: (§5) The experiment was performed as described previously. Briefly, B-lymphocyte DC-SIGN-expressing (Raji/DC-SIGN) cells were suspended in cell culture medium at 2 × 10^6 cells/ml. 100 μl of HIV-1(IIIB) (~250,000 pg p24) were added in the presence of 400 μl of serial dilutions of the test compounds. After 60 minutes of incubation, the cells were carefully washed 3 times to remove unbound virions and resuspended in 1 ml of cell culture medium. The captured HIV-1(IIIB) was quantified by a p24 Ag ELISA. From the Raji/DC-SIGN cell suspension, 200 μl were also added to the wells of a 48-well microtiter plate in the presence of 800 μl uninfected C8166 cells (2.5 × 10^5 cells/ml). These cocultures were further incubated at 37°C, and syncytia formation was evaluated microscopically after ~ 18 to 42 h, and viral p24 Ag determination in the culture supernatants was performed.
(§6) One hour later, free virus particles and the test compounds were carefully removed from the cell cultures by several washing steps.

HIV-1(IIIB) = assay: Antiretrovirus assay, HIV-1(IIIB)-induced cytopathicity (syncytium formation) in CEM cell cultures; assay type: cell-based; details: inhibit virus-induced cytopathicity in CEM cell cultures by 50%
Protocol: as §3

[4] = tested on: DC-SIGN-mediated capture of HIV-1(IIIB) by Raji/DC-SIGN cells; assay: Capture of HIV-1(IIIB) by Raji/DC-SIGN cells (p24 Ag ELISA); assay type: cell-based; details: HIV-1(IIIB) capture by Raji/DC-SIGN cells
Protocol: as §5, §6

[5] = tested on: HIV-1 UG273 (clade A, R5); assay: p24 production in HIV-infected PBMC, clinical isolate UG273; assay type: cell-based; details: inhibit p24 production of HIV-infected PBMC
Protocol: as §4

HIV-1(BaL) (Clade B) = assay: p24 production in HIV-infected PBMC, BaL; assay type: cell-based; details: inhibit p24 production of HIV-infected PBMC
Protocol: as §4

[6] = tested on: HIV-1 ID12 (clade A/E, R5); assay: p24 production in HIV-infected PBMC, clinical isolate ID12; assay type: cell-based; details: inhibit p24 production of HIV-infected PBMC
Protocol: as §4

Sequence of immobilized GNA (P30617 24-128): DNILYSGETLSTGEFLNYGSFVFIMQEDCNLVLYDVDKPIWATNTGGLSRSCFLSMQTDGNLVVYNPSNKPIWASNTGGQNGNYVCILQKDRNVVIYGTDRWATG

## OC[C@H]1O[C@H](O[C@@H]2[C@@H](O[C@@H]3C(O)O[C@H](CO)[C@@H](O)[C@@H]3O)O[C@H](CO)[C@@H](O)[C@@H]2O)[C@@H](O)[C@@H](O)[C@@H]1O (stereo partly drawn) [(α1,2-man)3]
Immobilized GNA
  Kd: > 1000 µM
Immobilized GNAmaize
  KD, immobilized GNAmaize: did not bind

## OC[C@H]1O[C@H](O[C@H]2[C@H](O)[C@@H](CO)OC(O)[C@H]2O)[C@@H](O)[C@@H](O)[C@@H]1O (stereo partly drawn) [(α1,3-man)2]
Immobilized GNA
  KD, immobilized GNA: preferentially bind
  Kd: > 2000 µM
Immobilized GNAmaize
  KD, immobilized GNAmaize: did not bind

## CC(=O)N[C@H]1[C@H](O[C@@H]2C(O)O[C@H](CO)[C@@H](O)[C@@H]2O)O[C@H](CO)[C@@H](O)[C@@H]1O (some centres unmarked) [GlcNAcβ1,2Man, GlcNAcß1,2Man]
Immobilized GNA
  KD, immobilized GNA: didn't bind; also recorded: not to GNA
Immobilized GNAmaize
  KD, immobilized GNAmaize: binding detected^b
Immobilized GNAmaize; listed as GlcNAcß1,2Man
  KD, immobilized GNAmaize: able to measurably bind

## CC(=O)N[C@H]1[C@H](O[C@H]2[C@H](O)[C@@H](NC(C)=O)C(O)O[C@@H]2CO)O[C@H](CO)[C@@H](O[C@@H]2O[C@H](CO[C@H]3O[C@H](CO)[C@@H](O)[C@H](O)[C@@H]3O[C@@H]3O[C@H](CO)[C@@H](O)[C@H](O)[C@H]3NC(C)=O)[C@@H](O)[C@H](O[C@H]3O[C@H](CO)[C@@H](O)[C@H](O)[C@@H]3O[C@@H]3O[C@H](CO)[C@@H](O)[C@H](O)[C@H]3NC(C)=O)[C@@H]2O)[C@@H]1O (some centres unmarked) [GlcNAcβ1,2Manα1,3(GlcNAcβ1,2Manα1,6)Manβ1,4GlcNAcβ1,4GlcNAc]
Immobilized GNA
  KD, immobilized GNA: not to GNA
Immobilized GNAmaize
  KD, immobilized GNAmaize: binding detected^b
Immobilized GNAmaize; listed as GlcNAcβ1,2Manα1,3(GlcNAcβ1,2Manα1,6) Manβ1,4GlcNAcβ1,4GlcNAc
  KD, immobilized GNAmaize: able to bind

## GNA: mannose-specific tetrameric plant lectin of 50 kDa from snowdrop (Galanthus nivalis) bulbs
[1]
  EC50: 0.062 ± 0.064 µM
HIV-2(ROD)
  EC50: 0.008 ± 0.001 µM
[2]
  EC50: 0.84 µM
[3]
  EC50: 0.006 ± 0.005 µM
HIV-1(IIIB)
  EC50: 0.007 ± 0.001 µM
[4]
  EC50: 0.04 ± 0.01 µM
[5]
  EC50: 0.046 µM
HIV-1(BaL) (Clade B)
  EC50: 0.13 µM
[6]
  EC50 Clade A/E, ID12: 0.38 µM

From article PMC3048538, “Differences in the mannose oligomer specificities of the closely related lectins from Galanthus nivalis and Zea mays strongly determine their eventual anti-HIV activity” (Retrovirology, 2011)
